Laboratory results as given in patent publication US20080249042A1, “All-Trans-Retinol: All-Trans-13,14-Dihydroretinol Saturase and Methods of Its Use” (UNIVERSITY OF WASHINGTON, priority 2004, published 2008).

Experiments:
CYP26C1 = target: T1, CYP26C1 (Mus musculus, UniProt B2RXA7); settings: 0.1 mM, 4 h, cells in culture
T1 sequence (B2RXA7 1-518): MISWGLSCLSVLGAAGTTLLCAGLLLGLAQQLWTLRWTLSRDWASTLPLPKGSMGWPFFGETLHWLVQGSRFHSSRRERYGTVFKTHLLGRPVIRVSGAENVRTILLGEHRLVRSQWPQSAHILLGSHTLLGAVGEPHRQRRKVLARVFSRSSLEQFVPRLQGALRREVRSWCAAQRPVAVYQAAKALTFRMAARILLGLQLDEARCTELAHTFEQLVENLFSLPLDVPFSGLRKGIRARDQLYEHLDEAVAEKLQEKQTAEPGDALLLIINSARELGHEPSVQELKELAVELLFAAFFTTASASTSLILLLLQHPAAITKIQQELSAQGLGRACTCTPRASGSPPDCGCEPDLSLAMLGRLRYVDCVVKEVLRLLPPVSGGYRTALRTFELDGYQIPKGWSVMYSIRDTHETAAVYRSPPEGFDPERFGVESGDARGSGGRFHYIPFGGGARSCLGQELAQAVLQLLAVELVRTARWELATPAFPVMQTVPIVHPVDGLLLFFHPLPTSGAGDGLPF
Procedure: (§1) CYP26A1 Oxidation Assay. […] After 24 h, the transfected cells were split into 12-well plates to ensure an equal number of transfected cells in each assay well. […] The peaks were identified based on their spectra and coelution with standards. The cell lysate was examined for expression of CYP26A1, -B1, and -C1 by SDS-PAGE and immunoblotting of the V5 epitope-tagged recombinant protein using an anti-V5 epitope monoclonal antibody (Invitrogen).

CYP26B1 = target: T2, CYP26B1 (Mus musculus, UniProt Q811W2); settings: 0.1 mM, 4 h, cells in culture
T2 sequence (Q811W2 1-512): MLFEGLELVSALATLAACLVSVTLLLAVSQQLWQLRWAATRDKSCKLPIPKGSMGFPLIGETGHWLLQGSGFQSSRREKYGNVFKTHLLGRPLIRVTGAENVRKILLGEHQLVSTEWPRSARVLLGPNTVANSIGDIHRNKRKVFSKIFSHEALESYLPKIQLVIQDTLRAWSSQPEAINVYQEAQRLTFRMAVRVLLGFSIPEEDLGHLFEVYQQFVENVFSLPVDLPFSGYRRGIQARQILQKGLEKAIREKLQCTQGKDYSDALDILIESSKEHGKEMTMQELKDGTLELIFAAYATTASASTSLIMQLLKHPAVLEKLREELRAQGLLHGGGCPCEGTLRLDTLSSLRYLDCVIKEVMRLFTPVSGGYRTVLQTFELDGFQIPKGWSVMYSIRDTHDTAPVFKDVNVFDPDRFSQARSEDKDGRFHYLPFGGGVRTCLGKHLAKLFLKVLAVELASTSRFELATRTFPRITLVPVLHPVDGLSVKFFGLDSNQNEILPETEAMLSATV
Procedure: as §1

CYP26A1 = target: T3, CYP26A1 (Mus musculus, UniProt O55127); settings: 0.1 mM, 4 h, cells in culture
T3 sequence (O55127 1-497): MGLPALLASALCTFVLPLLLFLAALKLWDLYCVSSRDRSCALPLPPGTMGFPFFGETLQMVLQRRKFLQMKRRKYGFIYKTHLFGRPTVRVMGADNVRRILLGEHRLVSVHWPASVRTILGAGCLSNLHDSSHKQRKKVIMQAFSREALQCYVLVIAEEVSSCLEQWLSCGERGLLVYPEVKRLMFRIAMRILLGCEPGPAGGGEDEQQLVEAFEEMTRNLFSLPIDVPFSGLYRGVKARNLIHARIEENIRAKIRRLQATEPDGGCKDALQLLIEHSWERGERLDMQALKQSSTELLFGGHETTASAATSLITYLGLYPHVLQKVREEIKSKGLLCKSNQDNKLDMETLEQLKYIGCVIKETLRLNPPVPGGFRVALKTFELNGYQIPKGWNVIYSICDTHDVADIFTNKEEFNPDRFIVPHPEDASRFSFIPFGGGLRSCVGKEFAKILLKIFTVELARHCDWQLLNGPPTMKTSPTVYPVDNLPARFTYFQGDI
Procedure: as §1

prRDH = target: T4, prRDH (Homo sapiens, UniProt Q9NYR8); experiment: Oxidation by photoreceptor-specific RDH; type: biochemical; settings: results not shown
T4 sequence (Q9NYR8 1-311): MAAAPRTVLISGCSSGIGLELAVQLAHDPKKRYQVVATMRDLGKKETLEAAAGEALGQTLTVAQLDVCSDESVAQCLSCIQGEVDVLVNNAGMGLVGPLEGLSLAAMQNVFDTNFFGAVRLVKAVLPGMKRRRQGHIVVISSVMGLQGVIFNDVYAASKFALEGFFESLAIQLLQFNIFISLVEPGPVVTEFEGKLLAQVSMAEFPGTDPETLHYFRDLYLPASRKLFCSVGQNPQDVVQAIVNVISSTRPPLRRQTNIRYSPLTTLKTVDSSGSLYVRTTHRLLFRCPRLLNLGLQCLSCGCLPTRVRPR

RDH12 = target: T5, RDH12 (Homo sapiens, UniProt Q96NR8); experiment: Oxidation by RDH12; type: biochemical; settings: results not shown
T5 sequence (Q96NR8 1-316): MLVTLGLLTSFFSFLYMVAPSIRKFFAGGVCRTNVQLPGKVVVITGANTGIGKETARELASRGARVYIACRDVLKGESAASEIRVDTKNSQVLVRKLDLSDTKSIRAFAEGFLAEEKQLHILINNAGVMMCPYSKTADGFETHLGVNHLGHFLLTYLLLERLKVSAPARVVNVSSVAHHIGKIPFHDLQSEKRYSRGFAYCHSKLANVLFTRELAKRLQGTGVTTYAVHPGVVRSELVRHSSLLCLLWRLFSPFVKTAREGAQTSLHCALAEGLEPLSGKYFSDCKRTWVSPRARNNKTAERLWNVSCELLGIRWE

Equine liver ADH = target: T6, Equine liver ADH (Equus caballus, UniProt P00327); experiment: Oxidation using liver alcohol dehydrogenase; type: biochemical, horse; settings: in the presence of NAD and NADP
T6 construct: we used ADH purified from horse liver (EC 1.1.1.1 [EC]); purchased Sigma; host or cells: horse liver
T6 sequence (P00327 2-375 limits assumed): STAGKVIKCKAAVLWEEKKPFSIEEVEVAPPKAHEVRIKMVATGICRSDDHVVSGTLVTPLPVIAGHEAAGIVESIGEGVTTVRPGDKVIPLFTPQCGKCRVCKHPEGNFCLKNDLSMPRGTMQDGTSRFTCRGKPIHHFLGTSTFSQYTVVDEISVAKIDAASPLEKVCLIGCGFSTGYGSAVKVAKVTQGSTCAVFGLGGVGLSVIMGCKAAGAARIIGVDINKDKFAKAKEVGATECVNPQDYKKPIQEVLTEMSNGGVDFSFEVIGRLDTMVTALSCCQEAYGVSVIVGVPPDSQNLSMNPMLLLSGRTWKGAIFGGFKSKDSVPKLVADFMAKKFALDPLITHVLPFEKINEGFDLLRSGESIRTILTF
Procedure: Oxidation of All-trans-ROL and All-trans-DROL Using Liver Alcohol Dehydrogenase. Equine liver ADH (EC 1.1.1.1 [EC] ) was obtained from Sigma and dissolved in 50 mM Tris (pH 8.8) to a concentration of 5 units/ml (8.6 mg/ml). NAD and NADP were mixed together (1:1) at a concentration of 10 mM each. A substrate solution, 2 μl of 2 mM stock of all-trans-ROL or all-trans-DROL in N,N-dimethylformamide, was added to a 1.5-ml Eppendorf tube containing 20 μl of 10% bovine serum albumin, 20 μl of ADH, 2 μl of cofactor mixture, and 50 mM Tris (pH 8.8) to a total volume of 200 μl. The solutions were incubated at 37° C. for 60 min, after which 50 μl of 0.8 M NH2OH solution (pH 7.0) was added, followed by addition of 300 μl of methanol, 15 min at room temperature, and extraction with 300 μl of hexane. The organic phase was dried and analyzed by normal phase HPLC as described in the analysis of nonpolar retinoids extracted from tissue samples. As a control for the nonenzymatic reaction, boiled protein (90° C. for 5 min) was used with or without addition of cofactors.

| Structure (SMILES) | Oxidation to polar metabolites by CYP26C1 (CYP26C1) | Oxidation to polar metabolites by CYP26B1 (CYP26B1) | Oxidation to polar metabolites by CYP26A1 (CYP26A1) | Oxidation to the aldehyde by prRDH (prRDH) | Oxidation to the aldehyde by RDH12 (RDH12) | Oxidation to the aldehyde by ADH (Equine liver ADH) |
| --- | --- | --- | --- | --- | --- | --- |
| CC1=C(/C=C/C(C)=C/C=C/C(C)CC(=O)O)C(C)(C)CCC1 (stereo not drawn) [all-trans-DRA, all-trans-13,14-dihydroretinoic acid] | efficiently carried out the oxidation | efficiently carried out the oxidation | efficiently carried out the oxidation |  |  |  |
| CC1=C(/C=C/C(C)=C/C=C/C(C)CCO)C(C)(C)CCC1 (stereo not drawn) [all-trans-DROL, all-trans-13,14-dihydroretinol] |  |  |  | much less so | much less so | efficiently carried out the conversion |
| CC1=C(/C=C/C(C)=C/C=C/C(C)=C/C(=O)O)C(C)(C)CCC1 [all-trans-RA, all-trans-retinoic acid, reference compound] | efficiently carried out the oxidation | efficiently carried out the oxidation | efficiently carried out the oxidation |  |  |  |
| CC1=C(/C=C/C(C)=C/C=C/C(C)=C/CO)C(C)(C)CCC1 [all-trans-ROL, all-trans-retinol] |  |  |  | active | active | efficiently carried out the conversion |
